Measurements from patent publication US9140688B2, “Sperm staining and sorting methods” (INGURAN, LLC, priority 2011, dated 2015).
Like-named read-outs stand apart in the source and are kept apart here.

How the values were obtained:
[1] = system: X- and Y-chromosome bearing bovine sperm stained with Hoechst 33342; experiment: Split quality: height of peak divided by height of valley (PV), flow cytometry of stained bovine sperm; assay type: cell-based; details: for Height of Peak/Height of Valley: Ex 5; for Height of Peak Divided by Height of Valley: Ex 7, Phenol Red 620 μM with Yellow 6 62 μM
[2] = system: membrane compromised bovine sperm stained with Hoechst 33342; experiment: Dead quenching: dead gate intensity divided by live gate intensity, flow cytometry of stained bovine sperm; assay type: cell-based; details: for Dead Intensity (dead gate intensity divided by live gate intensity): Ex 5; for Intensity (dead gate): Hoechst 48 μM
Description: FIG. 4 illustrates an example bivariate plot and univariate histogram of the parameters measured during sex selection by a FACS on a flow cytometer. […] Without a dead quenching dye, both populations of sperm would overlap to a large extent, with unpredictable variations in the dead sperm.
The entire ejaculate of sperm was suspended in first staining buffer, specifically a 7.4 pH TALP described in TABLE 1, to a concentration of 160×10^6 sperm per mL (determined on nucleocounter) and divided into three aliquots of about 20 mL into 50 mL Falcon tubes and pre-warmed for 10 minutes at 34° C. The DNA selective fluorescent dye, Hoechst 33342, was added and samples were held at 34° C. for 60 minutes. 3 different Hoechst 33342 Stain Levels were used=12 μL, 14 μL and 16 μL per 2 mL (effective concentrations of 48 μM, 56 μM, 64 μM).
Preparation of the second buffer including the dead quenching dye—A 2 L bag of TALP, described in TABLE 1, was adjusted to pH 5.60 using HCl and then sterile filtered. […] For each of the four dyes tested (R40—red food dye No. 40, Y5—yellow food dye No. 5, Y6—yellow food dye No. 6 and PR—phenol red), an appropriate number of milligrams of each powder was placed in a Erlenmeyer Flask and then an exact amount of TALP pH 5.60 was added to create a […] concentration of the dye. The result was a working TALP stock for each dye with a 100% (125 μM) relative amount of dye 50% relative (62.5 μM) and 20% relative (25 μM) solutions were made by dilution of 100% by TALP pH 5.60.
After this “bulk” staining for 60 minutes, 1 mL aliquots of stained sperm were combined with 1 mL aliquots of the second buffer including the dead quenching dyes. Samples sat for approximately 30 minutes at room temperature before being analyzed on a MoFlo SX (Beckman Coulter, USA) sperm sorting flow cytometer. Event rates were held as close to 13,000 as possible at the point of data acquisition.
The total number of individual treatments was 42 tubes, each containing 2 mL of stained sample. The alignment of the sorter was established using nuclei and confirmed with live sample from the 50% Red 40 series. Once good alignment was established, each tube was placed on the sorter long enough to establish a stabile dead gate population (about 30 seconds) and then a screenshot was taken and saved as a .jpeg image. This approach of rapidly documenting each sample is used to assure the most consistent alignment between all samples. Realignment of sorter will not cause differences in the intensities of live and dead gate populations but will cause differences in split quality.
FIG. 4 illustrates an example histogram. The ratio of dead gate intensity divided by live gate intensity is created by dividing the distance “A” by the distance “B” shown as a percentage. Lower values mean higher levels of quenching. The ratio of peak height divided by valley height is created by dividing the distance “C” by the distance “D”. A value of 1.00 means “no split” while higher values mean “better splits”. […]

[3] = solvent water, cited from earlier work
[4] = dye 62.5 μM, Hoechst 12 μL/2 mL
[5] = dye 62.5 μM, Hoechst 14 μL/2 mL
[6] = dye 62.5 μM, Hoechst 16 μL/2 mL

O=S1(=O)OC(c2ccc(O)cc2)(c2ccc(O)cc2)c2ccccc21 [Phenol Red, phenolsulfonphthalein]
Height of Peak/Height of Valley ([1]; dye 25 μM, Average of 12 and 14 μL series): 1.74 | Height of Peak/Height of Valley ([1]; dye 25 μM, Hoechst 12 μL/2 mL): 1.82 | Height of Peak/Height of Valley ([1]; dye 25 μM, Hoechst 14 μL/2 mL): 1.65 | Height of Peak/Height of Valley ([1]; dye 25 μM, Hoechst 16 μL/2 mL): 1.00 | Height of Peak/Height of Valley ([1]; dye 62.5 μM, Average of 12 and 14 μL series): 1.75 | Height of Peak/Height of Valley [1, 4]: 1.62 | Height of Peak/Height of Valley [1, 5]: 1.87 | Height of Peak/Height of Valley [1, 6]: 1.00 | Height of Peak/Height of Valley ([1]; dye 125 μM, Average of 12 and 14 μL series): 1.62 | Height of Peak/Height of Valley ([1]; dye 125 μM, Hoechst 12 μL/2 mL): 1.49 | Height of Peak/Height of Valley ([1]; dye 125 μM, Hoechst 14 μL/2 mL): 1.75 | Height of Peak/Height of Valley ([1]; dye 125 μM, Hoechst 16 μL/2 mL): 1.00 | PV ([1]; Ex 6, dye 125 μM, pH 7.40, Hoechst 48 μM): 1.27 | PV ([1]; Ex 6, dye 125 μM, resulting pH 6.70, Hoechst 48 μM): 1.00 | PV ([1]; Ex 6, dye 250 μM, pH 7.40, Hoechst 48 μM): 1.22 | PV ([1]; Ex 6, dye 250 μM, resulting pH 6.70, Hoechst 48 μM): 1.17 | PV ([1]; Ex 6, dye 500 μM, pH 7.40, Hoechst 48 μM): 1.51 | PV ([1]; Ex 6, dye 500 μM, resulting pH 6.70, Hoechst 48 μM): 1.25 | PV ([1]; Ex 6, dye 750 μM, pH 7.40, Hoechst 48 μM): 1.46 | PV ([1]; Ex 6, dye 750 μM, resulting pH 6.70, Hoechst 48 μM): 1.25 | PV ([1]; Ex 6, dye 875 μM, pH 7.40, Hoechst 48 μM): 1.44 | PV ([1]; Ex 6, dye 875 μM, resulting pH 6.70, Hoechst 48 μM): 1.20 | PV ([1]; Ex 6, dye 1250 μM, pH 7.40, Hoechst 48 μM): 1.30 | PV ([1]; Ex 6, dye 1250 μM, resulting pH 6.70, Hoechst 48 μM (understained)): 1.29 | Height of Peak Divided by Height of Valley ([1]; cells 100 million per mL): 1.49 | Height of Peak Divided by Height of Valley ([1]; cells 150 million per mL): 1.34 | Height of Peak Divided by Height of Valley ([1]; cells 250 million per mL): 1.43 | Height of Peak Divided by Height of Valley ([1]; cells 300 million per mL): 1.36 | PV ([1]; Ex 8, Bull 1, Hoechst 44 μM, PR 250 μM with Y6 50 μM): 1.52 | PV ([1]; Ex 8, Bull 1, Hoechst 44 μM, PR 500 μM alone): 1.97 | PV ([1]; Ex 8, Bull 1, Hoechst 60 μM, PR 375 μM alone): 2.38 | PV ([1]; Ex 8, Bull 1, Hoechst 60 μM, PR 375 μM with Y6 50 μM): 2.38 | PV ([1]; Ex 8, Bull 1, Hoechst 60 μM, PR 1200 μM with R40 20 μM): 2.12 | PV ([1]; Ex 8, Bull 2, Hoechst 28 μM, PR 375 μM alone): 1.96 | PV ([1]; Ex 8, Bull 2, Hoechst 28 μM, PR 375 μM with Y6 50 μM): 2.05 | PV ([1]; Ex 8, Bull 2, Hoechst 44 μM, PR 225 μM with Y6 50 μM): 1.56 | PV ([1]; Ex 8, Bull 2, Hoechst 44 μM, PR 375 μM with R40 20 μM): 1.64 | PV ([1]; Ex 8, Bull 2, Hoechst 44 μM, PR 375 μM with Y6 50 μM): 1.75 | PV ([1]; Ex 8, Bull 2, Hoechst 60 μM, PR 375 μM with Y6 50 μM): 1.69 | PV ([1]; Ex 8, Bull 2, Hoechst 60 μM, PR 375 μM with Y6 375 μM): 2.31 | effect of addition on split quality, in words ([1]; Ex 8, each Hoechst level, with Red 40 or Yellow 6): always improved split quality | split enhancing effect compared to control, in words ([1]; Ex 10, 15, 45, 125 μM, averaged over 8 bulls): consistent split improvements at all concentrations after 30 minutes | Dead Intensity (dead gate intensity divided by live gate intensity) ([2]; dye 25 μM, Average of Hoechst levels): 94% | Dead Intensity (dead gate intensity divided by live gate intensity) ([2]; dye 25 μM, Hoechst 12 μL/2 mL): 94% | Dead Intensity (dead gate intensity divided by live gate intensity) ([2]; dye 25 μM, Hoechst 14 μL/2 mL): 97% | Dead Intensity (dead gate intensity divided by live gate intensity) ([2]; dye 25 μM, Hoechst 16 μL/2 mL): 90% | Dead Intensity (dead gate intensity divided by live gate intensity) ([2]; dye 62.5 μM, Average of Hoechst levels): 87% | Dead Intensity (dead gate intensity divided by live gate intensity) [2, 4]: 90% | Dead Intensity (dead gate intensity divided by live gate intensity) [2, 5]: 90% | Dead Intensity (dead gate intensity divided by live gate intensity) [2, 6]: 80% | Dead Intensity (dead gate intensity divided by live gate intensity) ([2]; dye 125 μM, Average of Hoechst levels): 79% | Dead Intensity (dead gate intensity divided by live gate intensity) ([2]; dye 125 μM, Hoechst 12 μL/2 mL): 80% | Dead Intensity (dead gate intensity divided by live gate intensity) ([2]; dye 125 μM, Hoechst 14 μL/2 mL): 80% | Dead Intensity (dead gate intensity divided by live gate intensity) ([2]; dye 125 μM, Hoechst 16 μL/2 mL): 78% | amount of dye needed for a similar dead gate intensity ratio as red food dye No. 40 and yellow food dye No. 6 ([2]; Ex 6): twelve times more | Intensity (dead gate) ([2]; Ex 6, dye 125 μM, pH 7.40): 85% | Intensity (dead gate) ([2]; Ex 6, dye 125 μM, resulting pH 6.70): 79% | Intensity (dead gate) ([2]; Ex 6, dye 250 μM, pH 7.40): 76% | Intensity (dead gate) ([2]; Ex 6, dye 250 μM, resulting pH 6.70): 70% | Intensity (dead gate) ([2]; Ex 6, dye 500 μM, pH 7.40): 66% | Intensity (dead gate) ([2]; Ex 6, dye 500 μM, resulting pH 6.70): 67% | Intensity (dead gate) ([2]; Ex 6, dye 750 μM, pH 7.40): 56% | Intensity (dead gate) ([2]; Ex 6, dye 750 μM, resulting pH 6.70): 55% | Intensity (dead gate) ([2]; Ex 6, dye 875 μM, pH 7.40): 47% | Intensity (dead gate) ([2]; Ex 6, dye 875 μM, resulting pH 6.70): 45% | Intensity (dead gate) ([2]; Ex 6, dye 1250 μM, pH 7.40): 43% | Intensity (dead gate) ([2]; Ex 6, dye 1250 μM, second buffer pH 5.60 (resulting pH 6.70)): 41% | Expected Absorption Maxima ([3]; longer-wavelength local maximum): 560 nm | Expected Absorption Maxima ([3]; shorter-wavelength local maximum): 440 nm
